{
  "source": "paper PMC11769294",
  "about": "“(E)-1-(3-(3-Hydroxy-4-Methoxyphenyl)-1-(3,4,5-Trimethoxyphenyl)allyl)-1H-1,2,4-Triazole and Related Compounds: Their Synthesis and Biological Evaluation as Novel Antimitotic Agents Targeting Breast Cancer” (Pharmaceuticals, 2025)",
  "key": {"[1]": {"tested_on": "purified bovine brain tubulin", "experiment": "Tubulin polymerization assay", "format": "biochemical", "settings": "after 60 min", "method": "The triazole 22b was selected for evaluation in the tubulin polymerization assay. Following the protocol previously described, the polymerization of purified bovine tubulin was monitored using a tubulin polymerization assay kit, BK006, (Cytoskeleton Inc., Denver, CO, USA). The assay was carried out using the purified bovine brain tubulin. Tubulin polymerization was determined spectrophotometrically by monitoring the change in turbidity since light is scattered proportionally to the concentration of polymerized microtubules in the assay. Lyophilized tubulin [128] (Cytoskeleton, Denver, CO, USA) (>99%, 3 mg/mL) was re-suspended in ice-cold G-PEM buffer (80 mM PIPES pH 6.9, […], 1 mM EGTA, 1 mM GTP, 10.2% (v/v) glycerol) and added to wells on a half volume 96-well plate containing the designated concentration of drug (10 or 30 μM). […] Samples were mixed well and the tubulin assembly was monitored at 340 nm at 30 s intervals for 60 min at 37 °C in a Spectramax 340PC spectrophotometer (Molecular Devices, San Jose, CA, USA).\nFigure 13 Inhibition of tubulin polymerization in vitro by compound 22b. […] The progress of the tubulin polymerization reaction at 37 °C was monitored at 340 nm in a Spectramax 340PC spectrophotometer at 30 s intervals for 60 min. Fold inhibition of tubulin polymerization can be calculated from the Vmax value for each reaction. […]"}, "CYP19 (aromatase)": {"molecular_target": "CYP19 (aromatase) (Homo sapiens, UniProt P11511)", "sequence (P11511 whole entry)": "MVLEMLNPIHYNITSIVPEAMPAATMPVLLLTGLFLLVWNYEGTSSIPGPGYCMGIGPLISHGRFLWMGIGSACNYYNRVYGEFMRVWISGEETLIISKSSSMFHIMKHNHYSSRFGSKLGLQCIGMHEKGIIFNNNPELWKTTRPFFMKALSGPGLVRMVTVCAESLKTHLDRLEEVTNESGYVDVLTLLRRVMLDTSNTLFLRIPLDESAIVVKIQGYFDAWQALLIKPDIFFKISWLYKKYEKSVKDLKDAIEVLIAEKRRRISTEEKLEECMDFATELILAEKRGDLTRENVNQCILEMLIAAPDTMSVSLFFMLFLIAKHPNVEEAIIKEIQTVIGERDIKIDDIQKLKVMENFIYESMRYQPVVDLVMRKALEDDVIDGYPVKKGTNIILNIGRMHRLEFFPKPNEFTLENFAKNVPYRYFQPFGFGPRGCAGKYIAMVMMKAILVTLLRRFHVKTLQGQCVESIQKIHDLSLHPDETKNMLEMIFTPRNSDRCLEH", "experiment": "Cytochrome P450 assay (DBF fluorescence)", "settings": "read-out: inhibition of CYP19"}},
  "data": [
    {"smiles": "COc1ccc(/C=C/C(c2cc(OC)c(OC)c(OC)c2)n2cncn2)cc1O", "note": "(stereo not drawn) [Compound 22b, (E)-5-(3-(1H-1,2,4-Triazol-1-yl)-3-(3,4,5-trimethoxyphenyl)prop-1-en-1-yl)-2-methoxyphenol]", "values": [
      {"measurement": "reduction in the polymer mass vs vehicle", "setting": "[1]; 10 μM", "value": 1.5, "unit": "fold"},
      {"measurement": "reduction in the polymer mass vs vehicle", "setting": "[1]; 30 μM", "value": 5, "unit": "fold"},
      {"measurement": "inhibition at 50 µM", "setting": "CYP19 (aromatase)", "value": 93, "unit": "%"}
    ]}
  ]
}
